Data published in US20200340984A1, “METHODS OF QUANTIFYING CFTR PROTEIN EXPRESSION” (Proteostasis Therapeutics, Inc., priority 2017, published 2020).

Columns and labels:
F508del CFTR = assay: CFTR AlphaLISA, F508del-CFBE cells; assay type: cell-based; details: CFTR protein
Source text: A cystic fibrosis bronchial epithelial cell line (CFBE410-) stably expressing either F508del-CFTR (CFBE F508del) or wild type CFTR (CFBE WT) under the control of a human cytomegalovirus (CMV) promoter was used. A CFBE410-cell line that lacks detectable CFTR endogenously was used as a control (CFBE parental).
In this assay, streptavidin-coated donor beads are coated with a biotinylated antibody that recognizes the CFTR protein and acceptor beads are coated with a second antibody that recognizes the CFTR protein. The AlphaLISA® assay uses luminescent oxygen-channeling chemistry in which laser irradiation of donor beads at 680 nm causes chemiluminescent emission from the acceptor bead at 615 nm. Thus, when CFTR protein is present, both donor and acceptor beads bind the analyte. Their close proximity triggers a reaction that results in chemiluminescent emission at 615 nm from the acceptor bead. […]
The plate was read on a Perkin Elmer EnVision (or a similar instrument can be used) at 615 nm (AlphaLISA® Opti-384 program). […]

CFTR = assay: Western blot analysis of CFTR expression, LS411N cells; assay type: cell-based
Description: Cells were washed with ice-cold phosphate-buffered saline (PBS) and lysed in Pierce™ immunoprecipitation (IP)-Lysis Buffer (Thermo Fisher Scientific Inc., Grand Island, N.Y.) containing protease inhibitor cocktail (cOmplete™ Mini Protease Inhibitor Cocktail tablets, Roche Diagnostics GmBH, Mannheim, Germany). The cells were incubated with lysis buffer for 30 minutes on ice and centrifuged for 30 minutes at 13,000 rpm. Supernatant was collected and protein concentration was assayed by Pierce™ BCA Protein Assay Kit (Thermo Fisher Scientific). The cell lysates were loaded on a NuPAGE 3%-8% Tris-Acetate Gel (Thermo Fisher Scientific), and transferred onto a nitrocellulose membrane (Trans-Blot® Turbo™ Mini Nitrocellulose Transfer Packs, Bio-Rad, Hercules, Calif.). The membrane was blocked in tris-buffered saline with Tween-20 (TBST) and 5% milk and probed with mouse CFTR antibody (UNC596, 1:500 dilution) at 4° C. with gentle shaking overnight. Next day, membrane was washed three times with (TBST). Then, the membrane was incubated for 2 hours with anti-mouse IgG, horseradish peroxidase (HRP)-linked antibody (Cell Signaling Technology, Beverly, Mass.) at 1:2000 dilution. […]

For `O=C(NCCCn1nncc1CO)c1cc(-c2ccccc2)on1` [PTI-CH], the “Fold change (PTI-CH/DMSO)” value (F508del CFTR) was 4.9 ± 0.53 and the “fold changes in CFTR expression” value (CFTR) was 2.2 ×.
